{"source": "patent US20100047333A1", "about": "“Modified Peptides and Their Use for the Treatment of Autoimmune Diseases” (priority 2001, published 2010)", "key": {"mice [1]": {"test_system": "mice", "test": "survival rate of mice after multiple administrations of peptide", "assay_type": "in vivo", "excerpt": "(§1) Other characteristics and advantages of the invention will become apparent from the example which follows relating to the preparation of the modified peptide and to the study of its activity against an autoimmune disease. Systemic lupus presents an easy clinical symptom to follow because of the large urinary protein excretion that accompanies the disorder that results from an associated renal condition, glomerulonephritis. Levels of protein secretion were followed to assess the effectiveness of the modified peptide in addressing the underlying autoimmune disorder.\n(§2) The specific peptide […] (SEQ ID NO: 1), which is a 21-amino acid sequence of the 70 kDa snRNP protein corresponding to residues 131-151, was synthesized in its phosphorylated form (in the 10 position—P10). This self-protein, which is normally present in each cell, is recognized by T-cells and antibodies from lupus patients and mice as an antigen toward which the immune system is reacting, generating a so-called autoimmune reaction."}, "CD4+ T cells": {"test_system": "CD4+ T cells", "test": "production of IL-2 (interluekin-2) by CD4+ T cells", "assay_type": "cell-based, mice", "excerpt": "as §2"}, "mice [2]": {"test_system": "mice", "test": "urine protein excretion in treated mice", "assay_type": "in vivo", "excerpt": "as §1, §2"}}, "data": [{"sequence": "RIHMVYSKRSGKPRGYAFIEY (listed as Homo sapiens) [natural (non-phosphorylated) peptide, reference compound]", "values": [{"measurement": "improvement in the survival rate (in words)", "setting": "mice [1]; mice, after administration of the peptide", "result": "unable to improve significantly the survival rate"}]}, {"sequence": "RIHMVYSKRSGKPRGYAFIEY (lysine acetylation, position unspecified; listed as Homo sapiens) [acetylated peptide]", "values": [{"measurement": "activity (preliminary data)", "setting": "mice [1]; preliminary data, compared with the phosphorylated peptide P10", "result": "even stronger activity"}]}, {"sequence": "RIHMVYSKRSGKPRGYAFIEY [P10]", "values": [{"measurement": "production of IL-2 (interluekin-2) by CD4+ T cells", "setting": "CD4+ T cells", "result": "increased significantly"}, {"measurement": "survival rate", "setting": "mice [1]; mice, after multiple administrations (similar to a vaccine), compared to 0%", "result": 55, "unit": "%"}, {"measurement": "urine protein excretion", "setting": "mice [2]", "result": "reduced"}]}]}
